Assay results: US20150259300A1, “4-(ORTHO)-FLUOROPHENYL-5-FLUOROPYRIMIDIN-2-YL AMINES CONTAINING A SULFONE GROUP” (BAYER PHARMA AKTIENGESELLSCHAFT, priority 2012, published 2015)

Experiments:
Format in all cases: cell-based
[1] = test system: DU145 cells; test: Proliferation assay (crystal violet), DU145; details: Homo sapiens, DU-145, 96 h; DU145, 4 days; read-out: Inhibition of DU145 cell proliferation IC50
Protocol: (§1) Cultivated tumour cells (HeLa, human cervical tumour cells, ATCC CCL-2; NCI-H460, human non-small cell lung carcinoma cells, ATCC HTB-177; A2780, human ovarian carcinoma cells, ECACC #93112519; DU 145, hormone-independent human prostate carcinoma cells, ATCC HTB-81; HeLa-MaTu-ADR, multidrug-resistant human cervical carcinoma cells, EPO-GmbH Berlin; Caco-2, human colorectal carcinoma cells, ATCC HTB-37; B 16F10, mouse melanoma cells, ATCC CRL-6475) were plated at a density of 5,000 cells/well (DU145, HeLa-MaTu-ADR), 3,000 cells/well (NCI-H460, HeLa), 2,500 cells/well (A2780), 1,500 cells/well (Caco-2), or 1,000 cells/well (B16F10) in a 96-well multititer plate in 200 μL of their respective growth medium supplemented 10% fetal calf serum. After 24 hours, the cells of one plate (zero-point plate) were stained with crystal violet (see below), while the medium of the other plates was replaced by fresh culture medium (200 to which the test substances were added in various concentrations (0 μM, as well as in the range of 0.001-10 μM; the final concentration of the solvent dimethyl sulfoxide was 0.5%). The cells were incubated for 4 days in the presence of test substances. Cell proliferation was determined by staining the cells with crystal violet: the cells were fixed by adding 20 μl/measuring point of an 11% glutaric aldehyde solution for 15 minutes at room temperature. […]

[2] = test system: HeLa-MaTu-ADR cells; test: Proliferation assay (crystal violet), HeLa-MaTu-ADR; details: Homo sapiens, 96 h, 4 days, read-out: Inhibition of HeLa-MaTu-ADR cell proliferation IC50
Protocol: as §1

[3] = test system: NCI-H460 cells; test: Proliferation assay (crystal violet), NCI-H460; details: Homo sapiens, 96 h; NCI-H460, 4 days; read-out: Inhibition of H460 cell proliferation IC50
Protocol: as §1

[4] = test system: B16F10 cells; test: Proliferation assay (crystal violet), B16F10; details: Mus musculus, B16-F10, 96 h; B16F10, 4 days; read-out: Inhibition of B16F10 cell proliferation IC50
Protocol: as §1

[5] = test system: Caco-2 cells; test: Proliferation assay (crystal violet), Caco-2; details: Homo sapiens, 96 h; Caco-2, 4 days; read-out: Inhibition of Caco-2 cell proliferation IC50
Protocol: as §1

IC50 [1]: 352 nM
IC50 [2]: 220 nM
IC50 [3]: 386 nM
IC50 [4]: 951 nM
IC50 [5]: 382 nM
Structure (SMILES): CS(=O)(=O)Cc1cc(Nc2ncc(F)c(-c3ccc(F)cc3F)n2)cc(S(F)(F)(F)(F)F)c1 [Example 6, 4-(2,4-Difluorophenyl)-5-fluoro-N-{3-[(methylsulfonyl)methyl]-5-(pentafluoro-λ^6-sulfanyl)phenyl}pyrimidin-2-amine]
